Experimental data taken from patent US10590113B2, “6-hydroxy-4-oxo-1,4-dihydropyrimidine-5-carboxamides as APJ agonists” (priority 2016, dated 2020).

The molecules below were run against T1, human APJ receptor (Homo sapiens, UniProt P35414) (assay: Intracellular cAMP Accumulation Assay (APJ hcAMP, HTRF)). Conditions: not given.
T1 construct: expressed in transfected cells; host or cells: HEK293
T1 sequence (P35414 1-380): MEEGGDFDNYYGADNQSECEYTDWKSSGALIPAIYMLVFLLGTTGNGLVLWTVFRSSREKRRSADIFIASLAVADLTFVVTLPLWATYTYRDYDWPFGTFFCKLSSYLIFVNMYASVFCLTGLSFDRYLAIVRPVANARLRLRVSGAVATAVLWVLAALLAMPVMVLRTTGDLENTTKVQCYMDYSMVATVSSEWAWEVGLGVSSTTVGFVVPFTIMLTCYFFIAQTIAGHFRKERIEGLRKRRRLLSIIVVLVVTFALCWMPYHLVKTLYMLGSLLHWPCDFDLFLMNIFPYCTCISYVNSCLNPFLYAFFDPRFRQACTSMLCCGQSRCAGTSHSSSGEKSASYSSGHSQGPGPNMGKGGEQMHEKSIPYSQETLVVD
Assay type: cell-based
Procedure, shortened: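 Stably transfected HEK293 cells (5,000/well) incubated 30 min at room temperature with serially diluted compound, […] and 2 μM forskolin. cAMP measured by HTRF after 60 min with detection reagents, quantified against a cAMP standard curve; EC50 from variable-slope sigmoidal fit of inhibition of forskolin-stimulated cAMP.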

Q: With CCCCc1nc(O)c(C(=O)N2CC[C@@H](c3ccccc3)C2)c(=O)n1-c1c(CC)cccc1CC [Example 86, 2-butyl-3-(2,6-diethylphenyl)-6-hydroxy-5-[(3S)-3-phenylpyrrolidine-1-carbonyl]-3,4-dihydropyrimidin-4-one] as the molecule, how does the EC50 read?
A: 0.01 to 10 nM

Q: With CCCCc1nc(=O)c(C(=O)N2CC[C@H](c3ccccc3)C2)c(O)n1-c1c(CC)cccc1CC [Example 90, 2-butyl-3-(2,6-diethylphenyl)-6-hydroxy-5-[(3R)-3-phenylpyrrolidine-1-carbonyl]-3,4-dihydropyrimidin-4-one] as the molecule, how does the EC50 read?
A: 0.01 to 10 nM

Q: How did the EC50 turn out when [2H]C([2H])([2H])Oc1cccc(OC([2H])([2H])[2H])c1-n1c(COCC)nc(=O)c(C(=O)N2CC[C@H](c3ccccc3)C2)c1O [Example 106, 1-[2,6-bis(^2H3)methoxyphenyl]-2-(ethoxymethyl)-6-hydroxy-5-[(3R)-3-phenylpyrrolidine-1-carbonyl]-1,4-dihydropyrimidin-4-one] was run?
A: 0.01 to 10 nM

Q: With [2H]C([2H])([2H])Oc1cccc(OC([2H])([2H])[2H])c1-n1c(COCC)nc(=O)c(C(=O)N2CC[C@@H](c3ccccc3)C2)c1O [Example 109, 1-[2,6-bis(^2H3)methoxyphenyl]-2-(ethoxymethyl)-6-hydroxy-5-[(3S)-3-phenylpyrrolidine-1-carbonyl]-1,4-dihydropyrimidin-4-one] as the molecule, how does the EC50 read?
A: 0.01 to 10 nM

Same assay, conditions: human APJ, intracellular cAMP accumulation; read-out: hAPJ cAMP EC50 Potency range

Q: CCCCc1nc(=O)c(C(=O)N2CC[C@@H](OCc3ccccc3)C2)c(O)n1-c1c(OC)cccc1OC [Example 59, 5-[(3R)-3-(benzyloxy)pyrrolidine-1-carbonyl]-2-butyl-1-(2,6-dimethoxyphenyl)-6-hydroxy-1,4-dihydropyrimidin-4-one] was tested. Which EC50 did it give?
A: 0.01 to 10 nM

Q: Which EC50 does the source give for CCCCc1nc(=O)c(C(=O)N2Cc3ccncc3C2)c(O)n1-c1c(OC)cccc1OC [Example 60, 2-butyl-1-(2,6-dimethoxyphenyl)-6-hydroxy-5-{1H,2H,3H-pyrrolo[3,4-c]pyridine-2-carbonyl}-1,4-dihydropyrimidin-4-one] here?
A: 10 to 100 nM

Q: With CCCCc1nc(=O)c(C(=O)N2Cc3cccnc3C2)c(O)n1-c1c(OC)cccc1OC [Example 61, 2-butyl-1-(2,6-dimethoxyphenyl)-6-hydroxy-5-{5H,6H,7H-pyrrolo[3,4-b]pyridine-6-carbonyl}-1,4-dihydropyrimidin-4-one] as the molecule, how does the EC50 read?
A: 10 to 100 nM

Q: With CCCCc1nc(=O)c(C(=O)N2CC[C@@H](NC(=O)OCc3ccccc3)C2)c(O)n1-c1c(OC)cccc1OC [Example 62, benzyl N-[(3R)-1-[2-butyl-1-(2,6-dimethoxyphenyl)-6-hydroxy-4-oxo-1,4-dihydropyrimidine-5-carbonyl]pyrro1idin-3-yl]carbamate] as the molecule, how does the EC50 read?
A: 10 to 100 nM

Q: How did the EC50 turn out when CCCCc1nc(=O)c(C(=O)N2CC[C@H](OCc3ccccc3)C2)c(O)n1-c1c(OC)cccc1OC [Example 63, 5-[(3S)-3-(benzyloxy)pyrrolidine-1-carbonyl]-2-butyl-1-(2,6-dimethoxyphenyl)-6-hydroxy-1,4-dihydropyrimidin-4-one] was run?
A: 0.01 to 10 nM

Q: For CCCCc1nc(=O)c(C(=O)N2CC[C@H](OCc3ccccn3)C2)c(O)n1-c1c(OC)cccc1OC [Example 64, 2-butyl-1-(2,6-dimethoxyphenyl)-6-hydroxy-5-[(3S)-3-[(pyridin-2-yl)methoxy]pyrrolidine-1-carbonyl]-1,4-dihydropyrimidin-4-one], which EC50 is on record?
A: 0.01 to 10 nM

Q: CCCCc1nc(=O)c(C(=O)N2Cc3ccc(C#N)cc3C2)c(O)n1-c1c(OC)cccc1OC [Example 65, 2-[2-butyl-1-(2,6-dimethoxyphenyl)-6-hydroxy-4-oxo-1,4-dihydropyrimidine-5-carbonyl]-2,3-dihydro-1H-isoindole-5-carbonitrile] was tested. Which EC50 did it give?
A: 0.01 to 10 nM

Q: CCCCc1nc(=O)c(C(=O)N2Cc3ccccc3C2)c(O)n1-c1c(OC)cccc1OC [Example 66, 2-butyl-5-(2,3-dihydro-1H-isoindole-2-carbonyl)-1-(2,6-dimethoxyphenyl)-6-hydroxy-1,4-dihydropyrimidin-4-one] was tested. Which EC50 did it give?
A: 0.01 to 10 nM

Q: CCCCc1nc(=O)c(C(=O)N2CCN(Cc3cccc(F)c3)CC2)c(O)n1-c1c(OC)cccc1OC [Example 69, 2-butyl-1-(2,6-dimethoxyphenyl)-5-{4-[(3-fluorophenyl)methyl]piper-azine-1-carbonyl}-6-hydroxy-1,4-dihydropyrimidin-4-one] was tested. Which EC50 did it give?
A: 0.01 to 10 nM

Q: With CCCCc1nc(=O)c(C(=O)N2CCC(c3ccncc3)CC2)c(O)n1-c1c(OC)cccc1OC [Example 71, 2-butyl-1-(2,6-dimethoxyphenyl)-6-hydroxy-5-[4-(pyridin-4-yl)piperidine-1-carbonyl]-1,4-dihydropyrimidin-4-one] as the molecule, how does the EC50 read?
A: 0.01 to 10 nM

Q: For CCCCc1nc(=O)c(C(=O)N2CCC(c3ccccc3)CC2)c(O)n1-c1c(OC)cccc1OC [Example 72, 2-butyl-1-(2,6-dimethoxyphenyl)-6-hydroxy-5-(4-phenylpiperidine-1-carbonyl)-1,4-dihydropyrimidin-4-one], which EC50 is on record?
A: 10 to 100 nM

Q: Which EC50 does the source give for CCCCc1nc(=O)c(C(=O)N2CCC(c3ccc(F)cc3)CC2)c(O)n1-c1c(OC)cccc1OC [Example 74, 2-butyl-1-(2,6-dimethoxyphenyl)-5-[4-(4-fluorophenyl)piperidine-1-carbonyl]-6-hydroxy-1,4-dihydropyrimidin-4-one] here?
A: 10 to 100 nM

Q: With CCCCc1nc(=O)c(C(=O)N2CCC(c3ccc(F)cc3)C2)c(O)n1-c1c(OC)cccc1OC (centres unmarked) [Example 87, 2-butyl-3-(2,6-dimethoxyphenyl)-5-[3-(4-fluorophenyl)pyrrolidine-1-carbonyl]-6-hydroxy-3,4-dihydropyrimidin-4-one] as the molecule, how does the EC50 read?
A: 0.01 to 10 nM

Q: How did the EC50 turn out when CCCCc1nc(=O)c(C(=O)N2CC(c3cccc(Cl)c3)C2)c(O)n1-c1c(OC)cccc1OC [Example 88, 2-butyl-5-[3-(3-chlorophenyl)azetidine-1-carbonyl]-3-(2,6-dimethoxyphenyl)-6-hydroxy-3,4-dihydropyrimidin-4-one] was run?
A: 0.01 to 10 nM

Q: Which EC50 does the source give for COc1cccc(OC)c1-n1c(CCC2CC2)nc(=O)c(C(=O)N2CC[C@H](c3ccccc3)C2)c1O [Example 96, 2-(2-cyclopropylethyl)-1-(2,6-dimethoxyphenyl)-6-hydroxy-5-[(3R)-3-phenylpyrrolidine-1-carbonyl]-1,4-dihydropyrimidin-4-one] here?
A: 0.01 to 10 nM

Q: For COc1cccc(OC)c1-n1c(COC(C)C)nc(=O)c(C(=O)N2CC(c3ccccc3)C2)c1O [Example 110, 1-(2,6-dimethoxyphenyl)-6-hydroxy-5-(3-phenylazetidine-1-carbonyl)-2-[(propan-2-yloxy)methyl]-1,4-dihydropyrimidin-4-one], which EC50 is on record?
A: 10 to 100 nM

Q: COc1cccc(OC)c1-n1c(COC(C)C)nc(=O)c(C(=O)N2CC(c3ccc(C)cc3)C2)c1O [Example 111, 1-(2,6-dimethoxyphenyl)-6-hydroxy-5-[3-(4-methylphenyl)azetidine-1-carbonyl]-2-[(propan-2-yloxy)methyl]-1,4-dihydropyrimidin-4-one] was tested. Which EC50 did it give?
A: 10 to 100 nM

Q: How did the EC50 turn out when CCCCc1nc(=O)c(C(=O)N2CC[C@@H](c3ccccc3)C2)c(O)n1-c1c(OC)ncnc1OC [Example 112, 2-butyl-3-(4,6-dimethoxypyrimidin-5-yl)-6-hydroxy-5-[(3S)-3-phenylpyrrolidine-1-carbonyl]-3,4-dihydropyrimidin-4-one] was run?
A: 0.01 to 10 nM

Q: CCCCc1nc(=O)c(C(=O)N2CC[C@H](c3ccccc3)C2)c(O)n1-c1c(OC)ncnc1OC [Example 113, 2-butyl-3-(4,6-dimethoxypyrimidin-5-yl)-6-hydroxy-5-[(3R)-3-phenylpyrrolidine-1-carbonyl]-3,4-dihydropyrimidin-4-one] was tested. Which EC50 did it give?
A: 0.01 to 10 nM

Q: Which EC50 does the source give for CCCCc1nc(=O)c(C(=O)N2CCC(c3ccccc3F)C2)c(O)n1[C@@H](CC)c1ccccc1 (stereo partly drawn) [Example 114, 2-butyl-5-[3-(2-fluorophenyl)pyrrolidine-1-carbonyl]-6-hydroxy-3-[(1S)-1-phenylpropyl]-3,4-dihydropyrimidin-4-one] here?
A: 0.01 to 10 nM

Q: How did the EC50 turn out when CCCCc1nc(=O)c(C(=O)N2CC[C@H](c3ccccc3)C2)c(O)n1[C@@H](COC)c1ccccc1 [Example 116, 2-butyl-6-hydroxy-3-[(1R)-2-methoxy-1-phenylethyl]-5-[(3R)-3-phenylpyrrolidine-1-carbonyl]-3,4-dihydropyrimidin-4-one] was run?
A: 0.01 to 10 nM

Q: For CCCCc1nc(=O)c(C(=O)N2CC[C@H](c3ccccc3)C2)c(O)n1[C@H](C)c1ccccc1 [Example 117, 2-butyl-6-hydroxy-3-[(1R)-1-phenylethyl]-5-[(3R)-3-phenylpyrrolidine-1-carbonyl]-3,4-dihydropyrimidin-4-one], which EC50 is on record?
A: 0.01 to 10 nM

Q: With CCCCc1nc(=O)c(C(=O)N2CC[C@@H](c3ccccc3)C2)c(O)n1[C@@H](C)c1cccc(OC)c1 [Example 120, 2-butyl-6-hydroxy-3-[(1S)-1-(3-methoxyphenyl)ethyl]-5-[(3S)-3-phenylpyrrolidine-1-carbonyl]-3,4-dihydropyrimidin-4-one] as the molecule, how does the EC50 read?
A: 0.01 to 10 nM

Q: CCCCc1nc(=O)c(C(=O)N2CC[C@@H](c3ccccc3)C2)c(O)n1[C@@H](CC)c1ccccc1 [Example 121, 2-butyl-6-hydroxy-3-[(1S)-1-phenylpropyl]-5-[(3S)-3-phenylpyrrolidine-1-carbonyl]-3,4-dihydropyrimidin-4-one] was tested. Which EC50 did it give?
A: 0.01 to 10 nM

Q: Which EC50 does the source give for CCCCc1nc(=O)c(C(=O)N2CC[C@H](c3ccccc3)C2)c(O)n1[C@H](C)c1ccccc1OC [Example 122, 2-butyl-6-hydroxy-3-[(1R)-1-(2-methoxyphenyl)ethyl]-5-[(3R)-3-phenylpyrrolidine-1-carbonyl]-3,4-dihydropyrimidin-4-one] here?
A: 0.01 to 10 nM
